Laboratory results from US20100226881A1, “PYRAZOLO[1,5-a]PYRIDINES AND THEIR USE IN CANCER THERAPY” (Auckland Uniservices Limited, priority 2007, published 2010).
pIC50: −log10 of the molar value. Structures can show the parent of a compound that is named as a salt. Where two headings read alike, the source gives them in different places.

Experiments:
p110δ/p85 = p110δ/p85 (Homo sapiens, UniProt O00329); experiment: Inhibition of isolated enzyme, PI 3-kinase p110δ/p85; assay type: biochemical; conditions: recombinant enzyme, 100 μM ATP, average of two experiments
Procedure: (§1) Compounds were evaluated for their ability to inhibit the Class I PI 3-kinase enzymes p110δ/p85, p110α/p85 and p110β/p85. Reaction mixtures comprising 0.1 μg of recombinant enzyme, 10 μg of L-α-phosphatidylinositol, the compound (DMSO only or DMSO+compound to a final concentration of 1%), 2× Lipid Kinase Buffer (40 mM Tris-HCl pH 7.4, 200 mM NaCl, 1 mM EDTA) were activated by the addition of an ATP mix (5 mM MgCl2, 100 μM ATP, 0.1 μL [γ^33P]ATP). […] Firstly, 200 μL of chloroform/methanol (1:1) was added, the biphasic reactions mixed and centrifuged briefly, and the inorganic phase was removed and discarded.

NZB5 = experiment: Cellular growth inhibition (3H-thymidine), NZB5; assay type: cell-based; conditions: Homo sapiens, five days, 3H-thymidine incorporation, maximum 20 μM
Procedure: (§2) The compounds were evaluated against two early passage human cell lines NZB5 and NZOV9, whose development and culture have been described [Marshall et al, Oncol. Res. 2004, 14, 297]. The cells were grown in ITS medium (α-modified minimal essential medium supplemented insulin, transferrin, selenite and 5% fetal bovine serum) and grown on 96-well tissue culture plates under an atmosphere of 5% O2, 5% CO2 and 90% N2. Individual wells contained 500-1000 cells (depending on the growth rate) in a volume of 150 μL. Compounds were added at 10-fold concentration steps to a maximum of 20 μM and plates were incubated for five days, with ^3H-thymidine being added over the last 6 h. Cells were harvested and incorporated radioactivity measured. Duplicate samples were analyzed for each compound dose with multiple control samples. Data were fitted by a least-squares method to an exponential of the form y=y0+ae^−bx, where y is the radioactivity (corrected for background and normalized to 100% of the control) x is the radiation dose, and y0, a and b are variables, and the IC50 value defined as the compound concentration reducing ^3H-thymidine levels by 50%.

NZOV9 = experiment: Cellular growth inhibition (3H-thymidine), NZOV9; assay type: cell-based; conditions: Homo sapiens, five days, 3H-thymidine incorporation, maximum 20 μM
Procedure: as §2

p110α/p85 = p110α/p85 (Homo sapiens, UniProt P42336); experiment: Inhibition of isolated enzyme, PI 3-kinase p110α/p85; conditions: for IC50: read-out: IC50 (nM) p110α, recombinant enzyme, 100 μM ATP, average of two experiments
p110β/p85 = p110β/p85 (Homo sapiens, UniProt P42338); experiment: Inhibition of isolated enzyme, PI 3-kinase p110β/p85; assay type: biochemical; conditions: recombinant enzyme, 100 μM ATP, average of two experiments
Procedure: as §1

Chain of p110α/p85 (P42336 whole entry, species assumed): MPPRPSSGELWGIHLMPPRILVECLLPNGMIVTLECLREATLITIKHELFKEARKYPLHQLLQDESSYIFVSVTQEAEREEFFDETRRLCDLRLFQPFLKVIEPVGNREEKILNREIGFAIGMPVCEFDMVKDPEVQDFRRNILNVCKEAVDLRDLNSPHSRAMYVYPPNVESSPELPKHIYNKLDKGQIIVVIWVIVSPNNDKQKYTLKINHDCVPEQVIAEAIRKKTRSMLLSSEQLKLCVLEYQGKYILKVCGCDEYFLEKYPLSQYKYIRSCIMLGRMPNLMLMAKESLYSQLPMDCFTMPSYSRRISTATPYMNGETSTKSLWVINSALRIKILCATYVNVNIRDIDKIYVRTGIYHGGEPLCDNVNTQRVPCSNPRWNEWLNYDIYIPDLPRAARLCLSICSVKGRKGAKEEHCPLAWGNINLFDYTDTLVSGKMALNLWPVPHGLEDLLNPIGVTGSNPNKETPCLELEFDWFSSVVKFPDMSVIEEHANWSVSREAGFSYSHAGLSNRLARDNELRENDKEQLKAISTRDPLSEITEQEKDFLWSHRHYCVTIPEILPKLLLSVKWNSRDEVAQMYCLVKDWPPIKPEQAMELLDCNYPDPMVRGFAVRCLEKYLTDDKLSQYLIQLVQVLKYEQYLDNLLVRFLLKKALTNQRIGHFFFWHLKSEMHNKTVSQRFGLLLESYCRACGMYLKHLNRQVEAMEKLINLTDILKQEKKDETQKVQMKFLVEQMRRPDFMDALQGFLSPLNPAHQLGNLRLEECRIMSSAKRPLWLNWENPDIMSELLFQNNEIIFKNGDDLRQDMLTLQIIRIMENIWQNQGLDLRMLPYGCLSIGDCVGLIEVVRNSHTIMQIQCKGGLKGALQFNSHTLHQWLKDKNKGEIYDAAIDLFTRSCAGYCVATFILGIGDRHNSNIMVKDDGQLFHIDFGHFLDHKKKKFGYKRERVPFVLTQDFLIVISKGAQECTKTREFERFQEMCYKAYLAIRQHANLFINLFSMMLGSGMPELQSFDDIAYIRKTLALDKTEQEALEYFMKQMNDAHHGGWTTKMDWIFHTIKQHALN
Chain of p110α/p85 (P27986 whole entry partner, species assumed): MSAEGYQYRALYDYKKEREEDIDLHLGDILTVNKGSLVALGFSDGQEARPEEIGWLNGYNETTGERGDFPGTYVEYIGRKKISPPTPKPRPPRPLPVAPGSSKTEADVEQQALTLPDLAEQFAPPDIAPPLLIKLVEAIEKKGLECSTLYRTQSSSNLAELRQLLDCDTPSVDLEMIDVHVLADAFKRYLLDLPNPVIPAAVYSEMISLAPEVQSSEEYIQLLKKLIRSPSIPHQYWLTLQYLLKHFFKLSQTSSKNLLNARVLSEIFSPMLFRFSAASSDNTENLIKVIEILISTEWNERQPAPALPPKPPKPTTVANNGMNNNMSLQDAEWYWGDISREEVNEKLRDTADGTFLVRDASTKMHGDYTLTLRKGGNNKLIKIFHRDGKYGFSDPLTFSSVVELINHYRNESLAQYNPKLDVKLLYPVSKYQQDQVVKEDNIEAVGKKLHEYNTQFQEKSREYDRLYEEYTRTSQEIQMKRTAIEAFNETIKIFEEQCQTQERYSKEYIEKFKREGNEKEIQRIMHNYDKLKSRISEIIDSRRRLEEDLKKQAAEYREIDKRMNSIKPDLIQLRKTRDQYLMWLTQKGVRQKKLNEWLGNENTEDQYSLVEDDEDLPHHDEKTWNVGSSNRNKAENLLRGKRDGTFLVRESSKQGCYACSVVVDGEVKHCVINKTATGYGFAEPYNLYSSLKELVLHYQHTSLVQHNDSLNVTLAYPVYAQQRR
Chain of p110β/p85 (P42338 whole entry, species assumed): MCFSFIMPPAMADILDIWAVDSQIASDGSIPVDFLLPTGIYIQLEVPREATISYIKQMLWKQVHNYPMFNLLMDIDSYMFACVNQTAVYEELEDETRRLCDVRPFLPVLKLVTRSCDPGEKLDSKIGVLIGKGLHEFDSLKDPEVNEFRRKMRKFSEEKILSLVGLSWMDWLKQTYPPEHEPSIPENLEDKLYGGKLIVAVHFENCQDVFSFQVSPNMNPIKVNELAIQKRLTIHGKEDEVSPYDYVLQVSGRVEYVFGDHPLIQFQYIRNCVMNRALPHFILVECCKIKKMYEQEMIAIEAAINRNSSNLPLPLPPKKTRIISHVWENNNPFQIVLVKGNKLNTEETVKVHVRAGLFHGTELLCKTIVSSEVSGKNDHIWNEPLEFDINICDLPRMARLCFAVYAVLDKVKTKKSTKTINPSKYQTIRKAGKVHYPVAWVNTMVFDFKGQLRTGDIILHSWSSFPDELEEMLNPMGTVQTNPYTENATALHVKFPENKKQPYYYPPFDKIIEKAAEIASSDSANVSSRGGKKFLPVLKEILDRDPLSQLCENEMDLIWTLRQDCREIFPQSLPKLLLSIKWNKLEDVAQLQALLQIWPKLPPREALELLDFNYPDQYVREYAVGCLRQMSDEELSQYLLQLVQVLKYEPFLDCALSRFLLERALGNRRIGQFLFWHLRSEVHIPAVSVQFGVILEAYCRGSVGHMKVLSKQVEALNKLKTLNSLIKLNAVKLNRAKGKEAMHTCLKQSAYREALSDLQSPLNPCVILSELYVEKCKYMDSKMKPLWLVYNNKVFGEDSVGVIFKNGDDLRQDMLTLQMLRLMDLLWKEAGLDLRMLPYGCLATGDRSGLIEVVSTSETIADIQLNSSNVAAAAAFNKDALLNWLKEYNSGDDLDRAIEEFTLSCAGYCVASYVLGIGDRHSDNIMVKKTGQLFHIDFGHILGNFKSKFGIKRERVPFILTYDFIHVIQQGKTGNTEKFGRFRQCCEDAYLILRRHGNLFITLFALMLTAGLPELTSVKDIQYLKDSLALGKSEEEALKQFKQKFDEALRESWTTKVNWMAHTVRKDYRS
Chain of p110β/p85 (P27986 whole entry partner, species assumed): as the sequence (P27986 whole entry partner, species assumed) above
Chain of p110δ/p85 (O00329 whole entry, species assumed): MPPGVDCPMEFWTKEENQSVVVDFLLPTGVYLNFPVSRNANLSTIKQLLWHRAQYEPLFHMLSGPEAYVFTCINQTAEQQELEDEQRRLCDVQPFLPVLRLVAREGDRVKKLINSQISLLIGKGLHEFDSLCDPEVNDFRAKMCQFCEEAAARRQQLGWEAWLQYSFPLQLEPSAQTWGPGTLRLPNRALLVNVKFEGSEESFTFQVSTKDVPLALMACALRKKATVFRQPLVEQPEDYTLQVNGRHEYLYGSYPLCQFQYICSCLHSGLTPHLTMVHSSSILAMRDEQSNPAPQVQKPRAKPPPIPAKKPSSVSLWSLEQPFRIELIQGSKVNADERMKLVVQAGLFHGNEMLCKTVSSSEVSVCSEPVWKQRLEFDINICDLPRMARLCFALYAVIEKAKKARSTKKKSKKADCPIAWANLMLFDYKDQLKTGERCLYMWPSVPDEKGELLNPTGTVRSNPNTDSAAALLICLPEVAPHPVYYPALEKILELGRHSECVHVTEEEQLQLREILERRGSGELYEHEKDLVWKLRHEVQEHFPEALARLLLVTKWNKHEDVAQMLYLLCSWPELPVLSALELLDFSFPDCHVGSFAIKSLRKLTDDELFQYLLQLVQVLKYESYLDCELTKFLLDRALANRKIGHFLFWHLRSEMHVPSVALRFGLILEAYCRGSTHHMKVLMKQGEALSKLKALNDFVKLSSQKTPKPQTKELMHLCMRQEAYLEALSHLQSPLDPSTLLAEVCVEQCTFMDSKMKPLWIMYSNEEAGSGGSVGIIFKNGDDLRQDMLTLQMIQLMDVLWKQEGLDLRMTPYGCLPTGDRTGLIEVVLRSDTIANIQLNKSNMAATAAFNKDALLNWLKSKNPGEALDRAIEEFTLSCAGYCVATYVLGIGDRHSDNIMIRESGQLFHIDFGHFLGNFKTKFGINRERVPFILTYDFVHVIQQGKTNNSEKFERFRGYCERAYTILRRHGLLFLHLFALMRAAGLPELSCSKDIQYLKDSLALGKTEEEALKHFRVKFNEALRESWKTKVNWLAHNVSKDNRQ
Chain of p110δ/p85 (P27986 whole entry partner, species assumed): as the sequence (P27986 whole entry partner, species assumed) above

Row | IC50 (p110δ/p85) [nM] | IC50 (p110α/p85) [nM] | IC50 (p110β/p85) [nM] | Compound | IC50 (NZB5) [µM] | IC50 (NZOV9) [µM] | pIC50 (p110α/p85)
1 | 3400 | 190 |  | Cc1ccc([N+](=O)[O-])cc1S(=O)(=O)N(C)N=Cc1cnn2ccccc12 [E1, N,2-Dimethyl-5-nitro-N′-(pyrazolo[1,5-a]pyridin-3-ylmethylene)benzene-sulfonohydrazide] | 0.47 | 0.66 | 
2 | 790 | 260 | > 1000 | COC(=O)c1ccn2ncc(C=NN(C)S(=O)(=O)c3cc([N+](=O)[O-])ccc3C)c2c1 [E6, Methyl 3-((2-methyl-2-(2-methyl-5-nitrophenylsulfonyl)hydrazono)methyl)pyrazolo[1,5-a]pyridine-5-carboxylate] | 1.8 | 1.5 | 
3 | > 1000 | 230 | > 1000 | COc1ccn2ncc(C=NN(C)S(=O)(=O)c3cc([N+](=O)[O-])ccc3C)c2c1 [E9, N′-((5-Methoxypyrazolo[1,5-a]pyridin-3-yl)methylene)-N,2-dimethyl-5-nitrobenzenesulfonohydrazide] | 0.94 | 0.52 | 
4 | 25 | 3 | 23 | Cc1ccc(C#N)cc1S(=O)(=O)N(CCO)N=Cc1cnn2ccc(C#N)cc12 [E40, 5-Cyano-N′-((5-cyanopyrazolo[1,5-a]pyridin-3-yl)methylene)-N-(2-hydroxyethyl)-2-methylbenzenesulfonohydrazide] | 3.2 | 0.62 | 
5 | 320 | 55 | > 1000 | CN(N=Cc1cnn2ccc(C#N)cc12)S(=O)(=O)c1cc([N+](=O)[O-])ccc1NCCc1c[nH]cn1 [E63, 2-(2-(1H-Imidazol-4-yl)-ethylamino)-N′-((5-cyanopyrazolo[1,5-a]pyridin-3-yl)methylene)-N-methyl-5-nitrobenzenesulfonohydrazide hydrochloride] | 0.82 | 0.61 | 
6 | 440 | 9.6 | 580 | CN(N=Cc1cnn2ccc(C#N)cc12)S(=O)(=O)c1cc([N+](=O)[O-])ccc1NCc1cccnc1 [E65, N′-((5-Cyanopyrazolo[1,5-a]pyridin-3-yl)methylene)-N-methyl-5-nitro-2-(pyridin-3-ylmethylamino)benzenesulfonohydrazide hydrochloride] | 1.1 | 0.68 | 
7 | 200 |  | 5600 | CN(N=Cc1cnn2ccc(C#N)cc12)S(=O)(=O)c1cc([N+](=O)[O-])ccc1OCc1ccccn1 [E71, N′-((5-Cyanopyrazolo[1,5-a]pyridin-3-yl)methylene)-N-methyl-5-nitro-2-(pyridin-2-ylmethoxy)benzenesulfonohydrazide hydrochloride] | 1.3 | 0.66 | 8.24
8 | 210 | 3.4 | 35 | CN(C)c1ccc([N+](=O)[O-])cc1S(=O)(=O)N(C)N=Cc1cnn2ccc(Br)cc12 [E73, N′-((5-Bromopyrazolo[1,5-a]pyridin-3-yl)methylene)-2-(dimethylamino)-N-methyl-5-nitrobenzenesulfonohydrazide] | 0.11 | 0.31 | 
9 | 380 | 10 | 360 | CN(C)CCN(C)c1ccc(C#N)cc1S(=O)(=O)N(C)N=Cc1cnn2ccc(C#N)cc12 [E77, 5-Cyano-N′-((5-cyanopyrazolo[1,5-a]pyridin-3-yl)methylene)-2-((2-(dimethylamino)ethyl)(methyl)amino)-N-methylbenzenesulfonohydrazide hydro-chloride] | 0.06 | 0.05 | 

Continued, compound first:

Row | Compound | IC50 (p110δ/p85) [nM] | IC50 (p110α/p85) [nM] | IC50 (p110β/p85) [nM] | IC50 (NZB5) [µM] | IC50 (NZOV9) [µM] | pIC50 (p110α/p85)
10 | Cc1ccn2ncc(C=NN(C)S(=O)(=O)c3cc([N+](=O)[O-])ccc3C)c2c1 [E2, N,2-Dimethyl-N′-((5-methylpyrazolo[1,5-a]pyridin-3-yl)methylene)-5-nitro-benzenesulfonohydrazide] | 640 | 110 | > 1000 | 0.05 | 0.07 | 
11 | Cc1ccn2nc(C)c(C=NN(C)S(=O)(=O)c3cc([N+](=O)[O-])ccc3C)c2c1 [E4, N′-((2,5-Dimethylpyrazolo[1,5-a]pyridin-3-yl)methylene)-N,2-dimethyl-5-nitrobenzenesulfonohydrazide] | > 1000 | 870 | > 1000 | 15 | 20 | 
12 | Cc1ccc([N+](=O)[O-])cc1S(=O)(=O)N(C)N=Cc1cnn2ccc(I)cc12 [E15, N′-((5-Iodopyrazolo[1,5-a]pyridin-3-yl)methylene)-N,2-dimethyl-5-nitro-benzenesulfonohydrazide] | 240 |  | 720 | 0.04 | 0.05 | 7.64
13 | Cc1ccc([N+](=O)[O-])cc1S(=O)(=O)N(C)N=Cc1cnn2ccc(C3CC3)cc12 [E17, N′-((5-cyclopropylpyrazolo[1,5-a]pyridin-3-yl)methylene)-N,2-dimethyl-5-nitrobenzenesulfonohydrazide] | > 1000 | 330 | > 1000 | 0.74 | 0.67 | 
14 | C#Cc1ccn2ncc(C=NN(C)S(=O)(=O)c3cc([N+](=O)[O-])ccc3C)c2c1 [E18, N′-((5-Ethynylpyrazolo[1,5-a]pyridin-3-yl)methylene)-N,2-dimethyl-5-nitrobenzenesulfonohydrazide] | 43 | 1.4 | 47 | 0.16 | 0.11 | 
15 | Cc1ccc(F)cc1S(=O)(=O)N(C)N=Cc1cnn2ccc(C#N)cc12 [E27, N′-((5-Cyanopyrazolo[1,5-a]pyridin-3-yl)methylene)-5-fluoro-N,2-dimethylbenzenesulfonohydrazide] | 340 | 86 | 870 | > 20 | 14 | 
16 | CC(C)c1ccc([N+](=O)[O-])cc1S(=O)(=O)N(C)N=Cc1cnn2ccc(C#N)cc12 [E33, N′-((5-Cyanopyrazolo[1,5-a]pyridin-3-yl)methylene)-2-isopropyl-N-methyl-5-nitrobenzenesulfonohydrazide] | 40 | 1.8 | 300 | 0.19 | 0.26 | 
17 | CN(N=Cc1cnn2ccc(C#N)cc12)S(=O)(=O)c1cc([N+](=O)[O-])ccc1Cl [E34, 2-Chloro-N′-((5-cyanopyrazolo[1,5-a]pyridin-3-yl)methylene)-N-methyl-5-nitrobenzenesulfonohydrazide] |  |  |  | 0.88 | 0.35 | 
18 | Cc1ccc([N+](=O)[O-])cc1S(=O)(=O)NN=Cc1cnn2ccc(C#N)cc12 [E42, N′-((5-Cyanopyrazolo[1,5-a]pyridin-3-yl)methylene)-2-methyl-5-nitro-benzenesulfonohydrazide] | 580 | 13 | 620 | 2.5 | 4.9 | 
19 | Cc1ccc([N+](=O)[O-])cc1S(=O)(=O)N(CCN(C)C)N=Cc1cnn2ccc(C#N)cc12 [E46, N′-((5-Cyanopyrazolo[1,5-a]pyridin-3-yl)methylene)-N-(2-(dimethylamino)ethyl)-2-methyl-5-nitrobenzenesulfonohydrazide] | 130 | 30 | 200 | 0.37 | 0.4 | 
20 | Cc1ccc([N+](=O)[O-])cc1S(=O)(=O)N(CCN1CCOCC1)N=Cc1cnn2ccc(C#N)cc12 [E47, N′-((5-Cyanopyrazolo[1,5-a]pyridin-3-yl)methylene)-2-methyl-N-(2-morpholinoethyl)-5-nitrobenzenesulfonohydrazide] | 10 | 4.5 | 230 | 0.51 | 0.55 | 
21 | CN(N=Cc1cnn2ccc(C#N)cc12)S(=O)(=O)c1cc([N+](=O)[O-])ccc1NCCN1CCOCC1 [E58, N′-((5-Cyanopyrazolo[1,5-a]pyridin-3-yl)methylene)-N-methyl-2-(2-morpholinoethylamino)-5-nitrobenzenesulfonohydrazide hydrochloride] | 26 | 9 | > 1000 | 9.4 | > 20 | 
22 | CN(N=Cc1cnn2ccc(Br)cc12)S(=O)(=O)c1cc([N+](=O)[O-])ccc1OCCN1CCOCC1 [E74, N′-((5-Bromopyrazolo[1,5-a]pyridin-3-yl)methylene)-N-methyl-2-(2-morpholinoethoxy)-5-nitrobenzenesulfonohydrazide hydrochloride] | 350 | 32 | 2900 | 0.27 | 0.55 | 
